Molecules are shown by their SMILES.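 Briefly, cells in 96-well plates were exposed to five compound concentrations for 48 h, and endpoints were estimated by linear interpolation. GI50 is the concentration that inhibits growth by half. TGI marks complete inhibition of growth.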

The test system of the first assay is CAKI-1 renal. Kind of assay: NCI anticancer screen, dose series, 48 h.
In the case of `Nc1nc(=S)c2ncn(C3OC(COP(=O)(O)O)C(O)C3O)c2[nH]1` (stereo not given), the GI50 is 0.544 µM and the TGI was greater than 100 µM.

Take `O=C(Nc1ccc(OC(F)(F)Cl)cc1)c1cnc(N2CC[C@@H](O)C2)c(-c2ccn[nH]2)c1`: the GI50 was 19.4 µM and the TGI was determined as 63 µM.

Compound `NC(N)=NCCCC(NCc1c2ccccc2nc2ccccc12)C(=O)O` (stereo not given) yielded a TGI greater than 100 µM.

With `Cc1cnc(C(=O)NNc2nc3sc4c(c3c(=O)[nH]2)C(C)CCC4)cn1` (stereo not given), the GI50 was 1.5 µM and the TGI was found to be 18.5 µM.

In turn, `O=C1c2ccccc2C(=O)c2c(NC3CCCCC3)ccc(Nc3ccc(S(=O)(=O)O)cc3)c21` yielded a TGI greater than 100 µM.

On to `CN(C)c1ccc(-c2cc(-c3ccc(Nc4nc(Nc5ccc(Cl)cc5)nc(Nc5ccc(Cl)cc5)n4)cc3)nc(N)c2C#N)cc1`, for which the GI50 is greater than 100 µM and the TGI was greater than 100 µM.

`COCCN(Cc1ccc(F)cc1)c1ccc(CO)c(Cl)c1`: the GI50 is 21.2 µM and the TGI was greater than 100 µM.

Turning to `COc1ccc(C(O)c2cc3c(N)c(C(=O)Nc4cccc5ccccc45)sc3nc2C)cc1` (stereo not given), the GI50 was 0.352 µM and the TGI is greater than 100 µM.

`Cc1cc(Br)c(NC(=O)c2c(-c3c(Cl)cccc3Cl)noc2C)c(Br)c1`: the GI50 was 7.81 µM and the TGI is greater than 100 µM.

Turning to `OCC1CC[N-]CC1.OCC1CC[N-]CC1.[Cl][Pt+2]([Cl])([Cl])[Cl]`, the GI50 is 20.3 µM and the TGI worked out at 81.5 µM.

As to `OCCCCC#Cc1ccccc1C#Cc1cccc(C(F)(F)F)c1`, the GI50 is 21.3 µM and the TGI worked out at 36.5 µM.

In turn, `CC(C)Cc1ccc(C(C)/C=C2\CCC(CN(C)C)C2=O)cc1` (stereo not given) gave a TGI of 32.7 µM.

Regarding `CCCCCC/C=C\CCCCCCCCC(=O)c1cccc(OC)c1OC`, the TGI was greater than 100 µM.

As for `Cn1c(=O)c2nc3sc4c(n3c2n(C)c1=O)C(=O)c1ccccc1C4=O`, the TGI is greater than 100 µM.

For `COc1ccc(/C=C2\CCC/C(=C\c3ccc(OC)c(OC)c3)C2=O)cc1OC`, the GI50 is 1.13 µM and the TGI amounted to 8.16 µM.

The subject of another assay is NCI-H226 lung. Kind of assay: NCI anticancer screen, dose series, 48 h.
On to `Nc1nc(=S)c2ncn(C3OC(COP(=O)(O)O)C(O)C3O)c2[nH]1` (stereo not given), for which the GI50 is 9.9 µM and the TGI was greater than 100 µM.

`O=C(Nc1ccc(OC(F)(F)Cl)cc1)c1cnc(N2CC[C@@H](O)C2)c(-c2ccn[nH]2)c1`: the GI50 was 11.8 µM and the TGI is 30 µM.

`NC(N)=NCCCC(NCc1c2ccccc2nc2ccccc12)C(=O)O` (stereo not given) displayed a TGI greater than 100 µM.

On to `Cc1cnc(C(=O)NNc2nc3sc4c(c3c(=O)[nH]2)C(C)CCC4)cn1` (stereo not given), for which the GI50 was 1.7 µM and the TGI was found to be 12.3 µM.

The compound `O=C1c2ccccc2C(=O)c2c(NC3CCCCC3)ccc(Nc3ccc(S(=O)(=O)O)cc3)c21` registered a TGI greater than 100 µM.

For the compound `CN(C)c1ccc(-c2cc(-c3ccc(Nc4nc(Nc5ccc(Cl)cc5)nc(Nc5ccc(Cl)cc5)n4)cc3)nc(N)c2C#N)cc1`, the GI50 was 3.58 µM and the TGI amounted to 24.4 µM.

Consider `COCCN(Cc1ccc(F)cc1)c1ccc(CO)c(Cl)c1`, for which the GI50 is 0.152 µM and the TGI was found to be 0.353 µM.

In the case of `COc1ccc(C(O)c2cc3c(N)c(C(=O)Nc4cccc5ccccc45)sc3nc2C)cc1` (stereo not given), the GI50 is 0.416 µM and the TGI was greater than 88 µM.

In the case of `Cc1cc(Br)c(NC(=O)c2c(-c3c(Cl)cccc3Cl)noc2C)c(Br)c1`, the GI50 was 82.5 µM and the TGI is greater than 100 µM.

For the compound `OCC1CC[N-]CC1.OCC1CC[N-]CC1.[Cl][Pt+2]([Cl])([Cl])[Cl]`, the GI50 was 39.5 µM.

On to `OCCCCC#Cc1ccccc1C#Cc1cccc(C(F)(F)F)c1`, for which the GI50 was 18.3 µM and the TGI was determined as 34 µM.

On to `CC(C)Cc1ccc(C(C)/C=C2\CCC(CN(C)C)C2=O)cc1` (stereo not given), for which the TGI came to 46.4 µM.

The compound `CCCCCC/C=C\CCCCCCCCC(=O)c1cccc(OC)c1OC` had a TGI greater than 100 µM.

As to `Cn1c(=O)c2nc3sc4c(n3c2n(C)c1=O)C(=O)c1ccccc1C4=O`, the TGI was greater than 87.2 µM.

As for `COc1ccc(/C=C2\CCC/C(=C\c3ccc(OC)c(OC)c3)C2=O)cc1OC`, the GI50 is 21.9 µM and the TGI is greater than 32.5 µM.

A further assay deals with UACC-62 melanoma. Put plainly: NCI anticancer screen, dose series, 48 h.
As for `Nc1nc(=S)c2ncn(C3OC(COP(=O)(O)O)C(O)C3O)c2[nH]1` (stereo not given), the GI50 was 0.539 µM and the TGI worked out at 6.14 µM.

Regarding `O=C(Nc1ccc(OC(F)(F)Cl)cc1)c1cnc(N2CC[C@@H](O)C2)c(-c2ccn[nH]2)c1`, the GI50 is 5.07 µM and the TGI stood at 19.5 µM.

For `NC(N)=NCCCC(NCc1c2ccccc2nc2ccccc12)C(=O)O` (stereo not given), the TGI was greater than 100 µM.

`Cc1cnc(C(=O)NNc2nc3sc4c(c3c(=O)[nH]2)C(C)CCC4)cn1` (stereo not given): the GI50 is 0.528 µM and the TGI was found to be 6.93 µM.

`O=C1c2ccccc2C(=O)c2c(NC3CCCCC3)ccc(Nc3ccc(S(=O)(=O)O)cc3)c21`: the TGI is greater than 100 µM.

As to `CN(C)c1ccc(-c2cc(-c3ccc(Nc4nc(Nc5ccc(Cl)cc5)nc(Nc5ccc(Cl)cc5)n4)cc3)nc(N)c2C#N)cc1`, the GI50 is 20.4 µM and the TGI worked out at 92.7 µM.

For `COCCN(Cc1ccc(F)cc1)c1ccc(CO)c(Cl)c1`, the GI50 is 0.653 µM and the TGI came out at 4.28 µM.

As to `COc1ccc(C(O)c2cc3c(N)c(C(=O)Nc4cccc5ccccc45)sc3nc2C)cc1` (stereo not given), the GI50 is 0.627 µM and the TGI was greater than 53.2 µM.

Turning to `Cc1cc(Br)c(NC(=O)c2c(-c3c(Cl)cccc3Cl)noc2C)c(Br)c1`, the GI50 was 14.3 µM and the TGI is greater than 100 µM.

Regarding `OCC1CC[N-]CC1.OCC1CC[N-]CC1.[Cl][Pt+2]([Cl])([Cl])[Cl]`, the GI50 is 29.4 µM.

Consider `OCCCCC#Cc1ccccc1C#Cc1cccc(C(F)(F)F)c1`, for which the GI50 is 15.9 µM and the TGI was found to be 29.5 µM.

Compound `CC(C)Cc1ccc(C(C)/C=C2\CCC(CN(C)C)C2=O)cc1` (stereo not given) had a TGI of 33.8 µM.

As to `CCCCCC/C=C\CCCCCCCCC(=O)c1cccc(OC)c1OC`, the TGI was greater than 100 µM.

`Cn1c(=O)c2nc3sc4c(n3c2n(C)c1=O)C(=O)c1ccccc1C4=O`: the TGI was greater than 100 µM.

In the case of `COc1ccc(/C=C2\CCC/C(=C\c3ccc(OC)c(OC)c3)C2=O)cc1OC`, the GI50 is 7.63 µM and the TGI is greater than 32.5 µM.

Another assay concerns HT29 colon. Put plainly: NCI anticancer screen, dose series, 48 h.
Take `Nc1nc(=S)c2ncn(C3OC(COP(=O)(O)O)C(O)C3O)c2[nH]1` (stereo not given): the GI50 was 1.2 µM and the TGI was greater than 100 µM.

For `O=C(Nc1ccc(OC(F)(F)Cl)cc1)c1cnc(N2CC[C@@H](O)C2)c(-c2ccn[nH]2)c1`, the GI50 was 3.12 µM and the TGI was found to be 12.1 µM.

`NC(N)=NCCCC(NCc1c2ccccc2nc2ccccc12)C(=O)O` (stereo not given) gave a TGI greater than 66.4 µM.

For `Cc1cnc(C(=O)NNc2nc3sc4c(c3c(=O)[nH]2)C(C)CCC4)cn1` (stereo not given), the GI50 is 1.61 µM and the TGI was greater than 100 µM.

Take `O=C1c2ccccc2C(=O)c2c(NC3CCCCC3)ccc(Nc3ccc(S(=O)(=O)O)cc3)c21`: the TGI is greater than 100 µM.

Turning to `CN(C)c1ccc(-c2cc(-c3ccc(Nc4nc(Nc5ccc(Cl)cc5)nc(Nc5ccc(Cl)cc5)n4)cc3)nc(N)c2C#N)cc1`, the GI50 was 8.85 µM and the TGI was greater than 100 µM.

Regarding `COCCN(Cc1ccc(F)cc1)c1ccc(CO)c(Cl)c1`, the GI50 was 22.4 µM and the TGI was greater than 100 µM.

Turning to `COc1ccc(C(O)c2cc3c(N)c(C(=O)Nc4cccc5ccccc45)sc3nc2C)cc1` (stereo not given), the GI50 is 0.35 µM.

With `Cc1cc(Br)c(NC(=O)c2c(-c3c(Cl)cccc3Cl)noc2C)c(Br)c1`, the GI50 was greater than 100 µM and the TGI was greater than 100 µM.

For `OCC1CC[N-]CC1.OCC1CC[N-]CC1.[Cl][Pt+2]([Cl])([Cl])[Cl]`, the GI50 was 17.1 µM and the TGI came out at 51.7 µM.

As for `OCCCCC#Cc1ccccc1C#Cc1cccc(C(F)(F)F)c1`, the GI50 is 10.5 µM and the TGI was determined as 23.4 µM.

Compound `CC(C)Cc1ccc(C(C)/C=C2\CCC(CN(C)C)C2=O)cc1` (stereo not given) showed a TGI of 31.5 µM.

Consider `CCCCCC/C=C\CCCCCCCCC(=O)c1cccc(OC)c1OC`, for which the TGI was greater than 100 µM.

The compound `Cn1c(=O)c2nc3sc4c(n3c2n(C)c1=O)C(=O)c1ccccc1C4=O` displayed a TGI greater than 56.2 µM.

For the compound `COc1ccc(/C=C2\CCC/C(=C\c3ccc(OC)c(OC)c3)C2=O)cc1OC`, the GI50 is 1.34 µM and the TGI was greater than 32.5 µM.

The subject of the next assay is MDA-MB-231 breast. Put plainly: NCI anticancer screen, dose series, 48 h.
`Nc1nc(=S)c2ncn(C3OC(COP(=O)(O)O)C(O)C3O)c2[nH]1` (stereo not given): the GI50 was 0.717 µM and the TGI is greater than 100 µM.

In the case of `O=C(Nc1ccc(OC(F)(F)Cl)cc1)c1cnc(N2CC[C@@H](O)C2)c(-c2ccn[nH]2)c1`, the GI50 was 4.73 µM and the TGI worked out at 21.5 µM.

Consider `NC(N)=NCCCC(NCc1c2ccccc2nc2ccccc12)C(=O)O` (stereo not given), for which the TGI was greater than 100 µM.

Consider `Cc1cnc(C(=O)NNc2nc3sc4c(c3c(=O)[nH]2)C(C)CCC4)cn1` (stereo not given), for which the GI50 was 1.85 µM and the TGI was found to be 18.1 µM.

`O=C1c2ccccc2C(=O)c2c(NC3CCCCC3)ccc(Nc3ccc(S(=O)(=O)O)cc3)c21` registered a TGI of 69.9 µM.

Regarding `CN(C)c1ccc(-c2cc(-c3ccc(Nc4nc(Nc5ccc(Cl)cc5)nc(Nc5ccc(Cl)cc5)n4)cc3)nc(N)c2C#N)cc1`, the GI50 is 5.51 µM and the TGI turned out to be 60.3 µM.

Turning to `COCCN(Cc1ccc(F)cc1)c1ccc(CO)c(Cl)c1`, the GI50 was 24.1 µM and the TGI is greater than 85.3 µM.

As to `COc1ccc(C(O)c2cc3c(N)c(C(=O)Nc4cccc5ccccc45)sc3nc2C)cc1` (stereo not given), the GI50 was 0.393 µM.

As for `Cc1cc(Br)c(NC(=O)c2c(-c3c(Cl)cccc3Cl)noc2C)c(Br)c1`, the GI50 was greater than 100 µM and the TGI is greater than 100 µM.

As for `OCC1CC[N-]CC1.OCC1CC[N-]CC1.[Cl][Pt+2]([Cl])([Cl])[Cl]`, the GI50 is 33.6 µM.

As for `OCCCCC#Cc1ccccc1C#Cc1cccc(C(F)(F)F)c1`, the GI50 was 18.3 µM and the TGI worked out at 33.4 µM.

`CC(C)Cc1ccc(C(C)/C=C2\CCC(CN(C)C)C2=O)cc1` (stereo not given) showed a TGI of 4.52 µM.

Regarding `CCCCCC/C=C\CCCCCCCCC(=O)c1cccc(OC)c1OC`, the TGI was greater than 100 µM.

For `Cn1c(=O)c2nc3sc4c(n3c2n(C)c1=O)C(=O)c1ccccc1C4=O`, the TGI is greater than 64.6 µM.

On to `COc1ccc(/C=C2\CCC/C(=C\c3ccc(OC)c(OC)c3)C2=O)cc1OC`, for which the GI50 is 10.5 µM and the TGI was greater than 32.5 µM.
